Source: patent US9814740B2, “Methods and compositions combining immunotherapy with monocyte activation” (Duke University, priority 2010, dated 2017)

Experiments:
FcγRII/III = FcγRII/III expression by innate effector cells after TLR agonist treatment; assay type: in vivo, mouse; details: splenocytes 18 h after treatment
Method: FIG. 4 is a set of graphs showing that TLR agonists induce monocyte activation and enhance CD20 mAb-induced B cell depletion. […] Splenocytes were isolated from mice 18 h later and analyzed for FcγRII/III expression by immunofluorescence staining. For FIGS. 4A-B the results represent 2 independent experiments. […] B1b and B2 cells were distinguished based on their differential expression of CD11b. […] Representative peritoneal lymphocytes of CpG-treated MyD88^-/- or wild type mice following CD20 or control mAb (25 μg) treatment. Percentages (±SEM) represent mean B220^+ cell frequencies within the indicated gates 7 days after CD20 mAb treatment (≧3 mice per value) relative to control mAb-treated littermates (n=3). In FIG. 4C-E significant differences between sample means are indicated; *p<0.05, **p<0.01. Results represent 3-4 independent experiments. Immunofluorescence analysis. CD20 expression was visualized using biotin-conjugated mouse CD20 (MB20-11) mAb (Uchida et al., 2004b) plus phycoerythrin-Cy5 (PE-Cy5) streptavidin (eBioscience, San Diego, Calif.). Other mAbs included: B220 (RA3-6B2), CD1d (1B1), CD5 (53-7.3), CD19 (1D3), NK1.1 (PK136), and I-A/I-E (M5/114.15.2) from BD Biosciences (San Jose, Calif.). CD11b (M1/70), CD86 (GL1), F4/80 (BM8), IgM (II/41), Gr-1 (RB6-8C5), and IL-10 (JES5-16E3) mAbs were from eBioscience. TNF-α (MP6-XT22) mAb was from Biolegend (San Diego, Calif.). […]

[1] = tested on: human blood mononuclear cells; test: B10pro cell maturation in vitro (human); assay type: cell-based; details: 48 h, CpG = human ODN 2006
Method: (§1) For IL-10 detection, mouse spleen or blood mononuclear cells, BL3750 tumor cells, or human blood were resuspended (2×10^6 cells/ml) in complete medium [RPMI 1640 media (Cellgro, Herndon, Va.) containing 10% FCS (Sigma, St. Louis, Mo.). […]. 4 mM L-Glutamine (all Cellgro), and 55 μM 2-mercaptoethanol (Invitrogen, Carlsbad. CA)] with lipopolysaccharide (LPS, 10 μg/ml, Escherichia coli serotype 0111: B4, Sigma), phorbol myristate acetate (PMA, 50 ng/ml; Sigma), ionomycin (500 ng/ml; Sigma), and monensin (2 μM; eBioscience) for 5 h. B10 progenitor cells were induced to mature and acquire IL-10 competence in vitro by culturing the cells with LPS (10 μg/ml), CpG (human ODN 2006, 10 μg/ml; Invivogen, San Diego, Calif., mouse ODN 1668, 10 μg/ml; Integrated DNA Technologies, Coralville, Iowa), or poly I:C (Invivogen) for 48 h with the addition of monensin, PMA and ionomycin for the last 5 h of culture. For TNF-α detection, bone marrow cells were resuspended (2×10^6 cells/ml) in complete medium with Brefeldin A (1 μl; Biolegend) and TLR agonists (25 μg/ml) for 4 h. Before cell surface staining, Fc receptors were blocked using Fc receptor mAb (2.4G2; BD Biosciences), and dead cells were labeled using a LIVE/DEAD® Fixable Green Dead Cell Stain Kit (Invitrogen-Molecular Probes). […]

macrophages = test: In vitro assay of antibody-dependent phagocytosis; assay type: cell-based, mouse
Method: In vitro assay of antibody-dependent phagocytosis. Spleen B cells were purified by MACS B cell isolation (Miltenyi Biotech), labeled with CFSE Vybrant™ CFDA SE fluorescent dye (5 μM; Invitrogen) and cultured over night in complete medium. CFSE-labeled B cells were incubated with CD20 mAb (MB20-11) on ice for 1 h, and washed with complete medium to remove unbound mAb. Macrophages were isolated from the peritoneal cavity of thioglycolate-treated mice by lavage. Peritineal macrophages were further purified by adherence to plastic before culture with or without poly I:C (25 μg/ml) in complete medium at 37° C. in a 5% CO2 atmosphere for 18 h. Macrophages and B cells were mixed at a 1:1 ratio and cultured for 2.5 h. The cell mixture was then stained with PE-conjugated CD11b mAb with the percentage of CFSE^+CD11b^+ (double-positive cells) analyzed by flow cytometry.

[2] = tested on: purified mouse spleen B cells; test: Secreted IL-10 ELISA; assay type: cell-based; details: 25 μg/ml, 72 h
Method: Cytokine ELISA. Secreted IL-10 was quantified by ELISA. Purified B cells (4×10^5) were cultured in 0.2 ml of complete medium with TLR agoninsts (25 μg/ml) in a 96-well flat-bottom tissue culture plates. Culture supernatant fluid IL-10 concentrations were quantified using IL-10 OptEIA ELISA kits (BD PharMingen) bfollowing the manufacturer's protocols. All assays were carried out using triplicate samples.

BL3750 lymphoma cells = test: BL3750 lymphoma model; assay type: in vivo, mouse
Method: Lymphoma model. BL3750 lymphoma cells were as described (Minard-Colin et al., 2008). This lymphoma model is accepted by those skilled in the art as a standard model for human lymphoma disease. For each experiment, tumor cells were thawed and expanded for 24-48 hours in complete medium (RPMI 1640 media containing 20% fetal bovine serum, 100 U/ml penicillin, 100 μg/ml streptomycin, 2 mM L-glutamine, and 55 μM 2-mercaptoethanol). BL3750 cells in 250 μl PBS were injected subcutaneously into the dorsal skin of recipient mice on day 0. This mouse model of lymphoma is a standard animal model for human lymphoma used and accepted by those skilled in the art. Mice were then given purified mAb in 250 μl of PBS intravenously, and starting on day 7 were monitored daily for tumor development and progression, and survival. Tumor measurements were as described (Minard-Colin et al., 2008).
CD20 immunotherapy and TLR agonist treatments. […] In some experiments, mice were treated with anti-NK1.1 mAb (100 g) on day −4 and day 3 for N K cell depletion. Macrophage deficiency was generated by tail vein injections of clodronate-encapsulated liposomes (Sigma-Aldrich) or control PBS-encapsulated liposomes (Van Rooijen and Sanders, 1994) 0.2 ml given on day −1 and 0.1 ml given on days 2, 5, and 9 (FIG. 3B) or 0.2 ml given on days −2, 1, and 4 (FIG. 3C).

purified spleen B cells = test: B cell proliferation assay (CFSE); assay type: cell-based, mouse; details: 25 μg/ml, 72 h
Method: Proliferation assay. Splenic B cells were purified using CD19 mAb-coated microbeads (Miltenyi) and labeled with CFSE Vybrant™ CFDA SE fluorescent dye (5 μM; Invitrogen). Labeled B cells were then cultured in medium with LPS, CpG, or poly I:C (25 μg/ml) for 72 h and assessed by flow cytometry.

mouse spleen B cells = test: B10pro cell maturation in vitro (mouse); assay type: cell-based; details: purified mouse spleen B cells, 48 h
Method: as §1

[3] = tested on: bone marrow CD11b+ monocytes; test: TLR-induced TNF-α production by CD11b+ bone marrow cells; assay type: cell-based, mouse; details: TLR agonists 25 μg/ml, 4 h, Brefeldin A
Method: as §1

[4] = compared with parent poly I:poly C; cited from earlier work
peritoneal B cells = test: Peritoneal B cell depletion by CD20 mAb with TLR agonists; assay type: in vivo, mouse; details: MyD88^−/− versus C57BL/6 mice
Source text: Immunofluorescence analysis. CD20 expression was visualized using biotin-conjugated mouse CD20 (MB20-11) mAb (Uchida et al., 2004b) plus phycoerythrin-Cy5 (PE-Cy5) streptavidin (eBioscience, San Diego, Calif.). Other mAbs included: B220 (RA3-6B2), CD1d (1B1), CD5 (53-7.3), CD19 (1D3), NK1.1 (PK136), and I-A/I-E (M5/114.15.2) from BD Biosciences (San Jose, Calif.). CD11b (M1/70), CD86 (GL1), F4/80 (BM8), IgM (II/41), Gr-1 (RB6-8C5), and IL-10 (JES5-16E3) mAbs were from eBioscience. TNF-α (MP6-XT22) mAb was from Biolegend (San Diego, Calif.). For immunofluorescence analysis, single cell suspensions (10^6 cells) were stained at 4° C. using predetermined optimal concentrations of mAb for 30 minutes as described (Sato et al., 1996). CD20 immunotherapy and TLR agonist treatments. Sterile mouse anti-mouse CD20 mAb (MB20-11, IgG2c) and unreactive mouse control IgG2a mAb were as described ([…]-Colin et al., 2008). In some experiments, mice were treated with anti-NK1.1 mAb ([…]) on day -4 and day 3 for N K cell depletion. Macrophage deficiency was generated by tail vein injections of clodronate-encapsulated liposomes (Sigma-Aldrich) or control PBS-encapsulated liposomes (Van Rooijen and Sanders, 1994) 0.2 ml given on day -1 and 0.1 ml given on days 2, 5, and 9 (FIG. 3B) or 0.2 ml given on days -2, 1, and 4 (FIG. 3C). […]

[5] = 10^5 BL3750 cells day 0, control mAb plus TLR agonist on days 1, 7, 14 and 21

Substance: polyinosinic-polycytidylic acid [poly I:C]
- FcγRII/III expression by innate effector cells (FcγRII/III): higher levels of FcγRII/III expression
- B10pro cell maturation into IL-10-competent B10 cells [1]: without effect
- phagocytic capacity of macrophages (macrophages; macrophages from TLR3^−/− or TRIF^−/− mice): unable to augment
- macrophage phagocytosis of CD20 mAb-coated B cells (macrophages; wild type macrophages, poly I:C 25 μg/ml 18 h, 1:1, 2.5 h): significantly enhanced
- IL-10 secretion [2]: without effect
- effect on mouse survival (BL3750 lymphoma cells; [5]): significant affect on mouse survival
- median survival (BL3750 lymphoma cells; [5]): 33 days
- B cell proliferation (purified spleen B cells): did not proliferate
- B10pro cell maturation into IL-10-competent B10 cells (mouse spleen B cells): without effect
- TNF-α production by monocytes [3]: induced significant TNF-α production

Substance: poly I:poly C12U [Ampligen]
- toxicity [4]: lower toxicity

Substance: polyadenylic-polyuridylic acid [Poly (A:U)]
- reducing tumor growth in the mouse model (BL3750 lymphoma cells; compared with Poly (I:C)): not as effective as Poly (I:C)

Substance: CpG: CpG ODN 1668 (5′tccATGACGTTCCTGAtgcT3′, bases in lower case are phosphorothioate); TLR9 agonist (DNA TCCATGACGTTCCTGATGCT; DNA, linkages s3 o13 s3 (s phosphorothioate, o phosphodiester), methylation of C not given here)
- FcγRII/III expression by innate effector cells (FcγRII/III): higher levels of FcγRII/III expression
- B10pro cell maturation into IL-10-competent B10 cells [1]: induced significant numbers of B10pro cells to mature
- IL-10 secretion [2]: induced IL-10 secretion
- ability to enhance peritoneal B cell depletion by CD20 mAb (peritoneal B cells): significantly reduced by MyD88-deficiency
- B cell proliferation (purified spleen B cells): proliferated significantly
- B10pro cell maturation into IL-10-competent B10 cells (mouse spleen B cells): induced significant numbers of B10pro cells to mature
- TNF-α production by monocytes [3]: induced significant TNF-α production
